In patent publication US20260193254A1, “2-OXOQUINAZOLINE CRYSTALLINE FORMS” (IDEAYA Biosciences, Inc., priority 2022, published 2026):
In brackets after ≈: the same amount, converted by molar mass.

Columns and labels:
Type in all cases: physicochemical
[1] = Hygroscopicity: water sorption and desorption by dynamic vapor sorption (DVS); conditions: for humidity at which water is absorbed again / water content restored (conversion back to the hydrate): DVS and variable humidity XRPD
Procedure: In some embodiments, the crystalline form described herein is further characterized by is further characterized by a dynamic vapor sorption (DVS) profile. In some embodiments, a DVS is recorded according to the method as described herein with a cycle of 40-0-95-0-40% RH at 25° C.
Water sorption and desorption behaviors of Form A, Form C, Form D, and Form T were investigated by DVS at 25° C. with a cycle of 40-0-95-0-40% RH. Dm/dt was 0.002. Minimum equilibration time was 60 min. Maximum equilibration time was 360 min. XRPD was measured after DVS test to determine potential form change.

[2] = Equilibrium solubility in FeSSIF and FaSSIF; conditions: for XRPD of solid after solubility test / final pH / Solubility / impurity in solubility sample: 24 hours; for Solubility / solubility at 24 h: target concentration 1 mg/mL, HPLC method 1 or 2 (footnote); for impurity in solubility sample: no unit printed for impurity (column head mg/mL); for solubility at 24 h: 37 °C, thermodynamic from solid
Procedure: (§1) Solid part and liquid part were separated by filtration. Solubility was measured by HPLC. Solid part (wet cake) was investigated by XRPD.

[3] = Variable humidity and temperature XRPD experiments
[4] = Variable humidity and temperature XRPD experiments; remark: listed apart in the source
Procedure: Based on DVS and DSC results of Form C, Form C starts to loss water when humidity is below 30% or when temperature is higher than about 44° C. […] In order to determine identity of potential form changes after the dehydration and upon the solid-solid transition, variable humidity and variable temperature XRPD techniques were applied. XRPD patterns of the sample were measured online under 25° C./ambient environment (initial)-120° C./N2 protection-25° C./ambient environment-25° C./80% RH (40 min)-25° C./0% RH (15 h), and 25° C./ambient environment (initial)-250° C./N2 protection-25° C./ambient environment. […] Form L coverts back to Form C after exposure to 25° C./80% RH for 40 min.
Based on DVS and DSC results of Form D, Form D starts to loss water when humidity is below 10% or when temperature is higher than 46° C. In order to determine identity of the dehydration product, variable humidity and variable temperature XRPD techniques were applied. XRPD patterns of the sample were measured online with a temperature cycle of 25° C./ambient environment (initial)-130° C./N2 protection (10 min)-25° C./N2 protection-25° C./ambient environment (3h) and two water sorption and desorption cycles of 50% RH (initial)-90% RH (3h)-60% RH (2h)-40% RH (2h)-20% RH (3h)-10% RH (3h)-0% RH (6h)-10% RH (3h)-20% RH (3h)-50% RH at 25° C. […] (higher than dehydration temperature). Form S converts back to Form D after exposure to ambient condition for 3 h.
In order to investigate potential form change of Form A upon heating, variable temperature XRPD technique was applied. XRPD patterns of the sample were measured online with a temperature cycle of 25° C. (initial)-50° C./N2 protection-70° C./N2 protection-250° C./N2 protection-25° C./N2 protection-25° C./ambient condition (3h). […] Form A converts to Form U when temperature is 250° C., and Form U converts to Form T after cooling to 25° C.

[5] = Equilibrium solubility in SGF (pH 2.0), 0.1 N HCl (pH 1.2) and phosphate buffer (pH 8.0); conditions: solid from solubility study with Form A in 0.1 N HCl solution
Procedure: as §1

Compound: Nc1nc(=O)n(-c2ccccc2Cl)c2nc(C(F)(F)F)ccc12 [Form C, 4-Amino-1-(2-chlorophenyl)-7-(trifluoromethyl)pyrido[2,3-d]pyrimidin-2(1H)-one]
- humidity below which the form starts to lose water ([1]; 25° C.): below 30 % RH
- form change after the DVS test ([1]; XRPD after DVS): A mixture of Form L and Form C was obtained
- XRPD of solid after solubility test ([2]; FaSSIF, pH 6.5, 37° C.): Form C
- final pH ([2]; FaSSIF, pH 6.5, 37° C.): 6.6
- Solubility ([2]; FaSSIF, pH 6.5, 37° C.): 60 µg/mL (≈ 176 µM)
- impurity in solubility sample ([2]; FaSSIF, pH 6.5, 37° C.): no impurity
- XRPD of solid after solubility test ([2]; FeSSIF, pH 5.0, 37° C.): Form C
- final pH ([2]; FeSSIF, pH 5.0, 37° C.): 5.2
- Solubility ([2]; FeSSIF, pH 5.0, 37° C.): 170 µg/mL (≈ 499 µM)
- impurity in solubility sample ([2]; FeSSIF, pH 5.0, 37° C.): no impurity
- XRPD (XRPD method 2) ([3]; VT1 25° C./60% RH (initial)): Form C
- XRPD (XRPD method 2) ([3]; VT7 250° C./60% RH (10 min)): Solid state Form V
- XRPD (XRPD method 2) ([3]; VT8 25° C./60% RH (final)): Solid state Form V
- XRPD (XRPD method 2) ([4]; VT2 120° C./60% RH (10 min)): Form L
- XRPD (XRPD method 2) ([4]; VT4 25° C./80% RH (40 min)): Form C
- XRPD (XRPD method 2) ([4]; VT6 25° C./60% RH (initial)): Form C
- temperature above which the form starts to lose water ([4]; based on DSC results): higher than 44 °C
- dehydration product (form obtained on loss of water) ([4]; low humidity or heating above the dehydration temperature): Form L

Compound: Nc1nc(=O)n(-c2ccccc2Cl)c2nc(C(F)(F)F)ccc12 [Form E, 4-Amino-1-(2-chlorophenyl)-7-(trifluoromethyl)pyrido[2,3-d]pyrimidin-2(1H)-one]
- solubility at 24 h ([2]; pH 5, fessif, FeSSIF, pH 5.0, 37° C.): 140 µg/mL (≈ 411 µM)
- solubility at 24 h ([2]; pH 6.5, fassif, FaSSIF, pH 6.5, 37° C.): 60 µg/mL (≈ 176 µM)
- XRPD of solid after solubility test ([2]; FaSSIF, pH 6.5, 37° C.): Form E
- final pH ([2]; FaSSIF, pH 6.5, 37° C.): 6.6
- XRPD of solid after solubility test ([2]; FeSSIF, pH 5.0, 37° C.): Form E
- final pH ([2]; FeSSIF, pH 5.0, 37° C.): 5.2

Compound: Nc1nc(=O)n(-c2ccccc2Cl)c2nc(C(F)(F)F)ccc12 [Form F, 4-Amino-1-(2-chlorophenyl)-7-(trifluoromethyl)pyrido[2,3-d]pyrimidin-2(1H)-one]
- XRPD of solid after solubility test ([2]; FaSSIF, pH 6.5, 37° C.): Form F
- final pH ([2]; FaSSIF, pH 6.5, 37° C.): 6.6
- XRPD of solid after solubility test ([2]; FeSSIF, pH 5.0, 37° C.): Form F
- final pH ([2]; FeSSIF, pH 5.0, 37° C.): 5.0
- Solubility ([2]; FeSSIF, pH 5.0, 37° C.): 240 µg/mL (≈ 704 µM)

Compound: Nc1nc(=O)n(-c2ccccc2Cl)c2nc(C(F)(F)F)ccc12 [Form L, 4-Amino-1-(2-chlorophenyl)-7-(trifluoromethyl)pyrido[2,3-d]pyrimidin-2(1H)-one]
- humidity at which water is absorbed again / water content restored (conversion back to the hydrate) ([1]; 25° C.): ≥ 80 % RH
- form after exposure to 25° C./80% RH for 40 min ([4]; variable humidity XRPD): Form C
- form obtained on heating to 250° C. ([4]; variable temperature XRPD, N2 protection): solid state Form V

Compound: Nc1nc(=O)n(-c2ccccc2Cl)c2nc(C(F)(F)F)ccc12 [Form R, 4-Amino-1-(2-chlorophenyl)-7-(trifluoromethyl)pyrido[2,3-d]pyrimidin-2(1H)-one]
- impurity from HPLC result [5]: about 68.5%

Compound: Nc1nc(=O)n(-c2ccccc2Cl)c2nc(C(F)(F)F)ccc12 [Form S, 4-Amino-1-(2-chlorophenyl)-7-(trifluoromethyl)pyrido[2,3-d]pyrimidin-2(1H)-one]
- humidity at which water is absorbed again / water content restored (conversion back to the hydrate) ([1]; 25° C.): higher than 20 % RH
- form after exposure to ambient condition for 3 h ([4]; XRPD, 25° C.): Form D

Compound: Nc1nc(=O)n(-c2ccccc2Cl)c2nc(C(F)(F)F)ccc12 [Form U, 4-Amino-1-(2-chlorophenyl)-7-(trifluoromethyl)pyrido[2,3-d]pyrimidin-2(1H)-one]
- form after cooling to 25° C. ([4]; after heating to 250° C.): Form T
